Counter-ions that a name gives are not always drawn. Like-named read-outs stand apart in the source and are kept apart here.
Columns and labels:
[1] = Stability test, percent of activity remaining on storage; format: physicochemical; details: nonsterile air; for % of activity after storage: time 0, closed flask
Method: Product A was placed in a flask containing nonsterile air and it was closed with a rubber stopper. The flask was stored at the temperatures for the times indicated in the following table and the percent of activity remaining was determined.

[2] = system: Proteus Vulgaris Co 1; experiment: In vitro antibacterial activity, liquid medium dilution (MIC); format: cell-based; details: 37° C., read-out: minimum inhibiting concentration (MIC)
Method: (§1) The method used was a dilution of a liquid medium where a series of tubes received the same quantity of a sterile nutritive media and increasing doses of the test compounds were placed therein. Then each tube was seeded with a bacterial strain and was incubated for 24 to 48 hours at 37° C. in an oven. The increasing inhibition was determined by transillumination to determine the minimum inhibiting concentration (MIC in μg/ml) and the results are reported in the following Tables.
(§2) Product A is the crystalline D form of the syn isomer of sodium 3-acetoxymethyl-7-[2-(2-amino-4-thiazolyl)-2-methoxyimino-acetamido]-ceph- 3-eme-4-carboxylate.

[3] = system: Proteus Mirabilis 9048; experiment: as above; format: cell-based; details: 37° C., read-out: minimum inhibiting concentration (MIC)
Method: as §1, §2

[4] = system: Proteus Vulgaris Co 4; experiment: as above; format: cell-based; details: 37° C., read-out: minimum inhibiting concentration (MIC)
Method: as §1, §2

[5] = system: Escherichia Coli T 55 4376; experiment: as above; format: cell-based; details: 37° C., read-out: minimum inhibiting concentration (MIC)
Method: as §1, §2

[6] = system: Staphylococcus aureus I H 41; experiment: as above; format: cell-based; details: 37° C., read-out: minimum inhibiting concentration (MIC)
Method: as §1, §2

[7] = system: Klebsiella Pneumoniae COc 229; experiment: as above; format: cell-based; details: 37° C., read-out: minimum inhibiting concentration (MIC)
Method: as §1, §2

[8] = system: Klebsiella Pneumoniae COc 238; experiment: as above; format: cell-based; details: 37° C., read-out: minimum inhibiting concentration (MIC)
Method: as §1, §2

[9] = system: Salmonella typhimurium 6478; experiment: as above; format: cell-based; details: Salmonella enterica, 37° C., read-out: minimum inhibiting concentration (MIC)
Method: as §1, §2

[10] = system: Escherichia Coli A 223; experiment: as above; format: cell-based; details: 37° C., read-out: minimum inhibiting concentration (MIC)
Method: as §1, §2

[11] = system: Staphylococcus aureus I H 47; experiment: as above; format: cell-based; details: 37° C., read-out: minimum inhibiting concentration (MIC)
Method: as §1, §2

[12] = system: Escherichia Coli T 55 4076; experiment: as above; format: cell-based; details: 37° C., read-out: minimum inhibiting concentration (MIC)
Method: as §1, §2

[13] = system: Staphylococcus aureus I H 38; experiment: as above; format: cell-based; details: 37° C., read-out: minimum inhibiting concentration (MIC)
Method: as §1, §2

[14] = system: Escherichia Coli 7881; experiment: as above; format: cell-based; details: 37° C., read-out: minimum inhibiting concentration (MIC)
Method: as §1, §2

[15] = system: Proteus Mirabilis 3477; experiment: as above; format: cell-based; details: 37° C., read-out: minimum inhibiting concentration (MIC)
Method: as §1, §2

[16] = system: Proteus Vulgaris Du 27; experiment: as above; format: cell-based; details: 37° C., read-out: minimum inhibiting concentration (MIC)
Method: as §1, §2

[17] = system: Staphylococcus aureus I H 005; experiment: as above; format: cell-based; details: 37° C., read-out: minimum inhibiting concentration (MIC)
Method: as §1, §2

[18] = system: Proteus Mirabilis 1816; experiment: as above; format: cell-based; details: 37° C., read-out: minimum inhibiting concentration (MIC)
Method: as §1, §2

[19] = Affinity to atmospheric humidity / hygroscopicity; format: physicochemical; details: solid

## CO/N=C(\C(=O)NC1C(=O)N2C(C(=O)O)=C(COC(C)=O)CSC12)c1csc(N)n1 (stereo not drawn) [Product A, sodium 3-acetoxymethyl-7-[2-(2-amino-4-thiazolyl)-2-methoxyimino-acetamido]-ceph-3-eme-4-carboxylate]
[1]; 50° C., 1.5 months, closed flask, read-out: % of activity after storage
  remaining at 1080 h: 92.5%
[1]; 50° C., 3 months, closed flask, read-out: % of activity after storage
  remaining at 2160 h: 92%
[1]; 50° C.
  % of activity after storage: 97%
[1]; 80° C., 2 weeks, closed flask, read-out: % of activity after storage
  remaining at 336 h: 81.5%
[1]; 80° C., 160 hours, closed flask, read-out: % of activity after storage
  remaining at 160 h: 89.5%
[1]; 80° C.
  % of activity after storage: 97%
[2]; 24 H
  MIC: 0.2 µg/mL
[2]; 48 H
  MIC: 0.4 µg/mL
[3]; 24 H
  MIC: 0.02 µg/mL
[3]; 48 H
  MIC: 0.02 µg/mL
[4]; 24 H
  MIC: 0.6 µg/mL
[4]; 48 H
  MIC: 0.6 µg/mL
[5]; COLIT554376, 24 H
  MIC: 0.1 µg/mL
[5]; COLIT554376, 48 H
  MIC: 0.1 µg/mL
[6]; IH41, 24 H
  MIC: 1 µg/mL
[6]; IH41, 48 H
  MIC: 2 µg/mL
[7]; 24 H
  MIC: 0.1 µg/mL
[7]; 48 H
  MIC: 0.1 µg/mL
[8]; 24 H
  MIC: 0.2 µg/mL
[8]; 48 H
  MIC: 0.2 µg/mL
[9]; 24 H
  MIC: 0.1 µg/mL
[9]; 48 H
  MIC: 0.1 µg/mL
[10]; COLIA223, 24 H
  MIC: 0.1 µg/mL
[10]; COLIA223, 48 H
  MIC: 0.1 µg/mL
[11]; IH47, 24 H
  MIC: 2 µg/mL
[11]; IH47, 48 H
  MIC: 2 µg/mL
[12]; COLIT554076, 24 H
  MIC: 0.05 µg/mL
[12]; COLIT554076, 48 H
  MIC: 0.05 µg/mL
[13]; IH38, 24 H
  MIC: 1 µg/mL
[13]; IH38, 48 H
  MIC: 2 µg/mL
[14]; COLI7881, 24 H
  MIC: 0.1 µg/mL
[14]; COLI7881, 48 H
  MIC: 0.1 µg/mL
[15]; 24 H
  MIC: 0.05 µg/mL
[15]; 48 H
  MIC: 0.05 µg/mL
[16]; 24 H
  MIC: ≤ 0.02 µg/mL
[16]; 48 H
  MIC: ≤ 0.02 µg/mL
[17]; IH005, 24 H
  MIC: 2 µg/mL
[17]; IH005, 48 H
  MIC: 3 µg/mL
[18]; 24 H
  MIC: 0.05 µg/mL
[18]; 48 H
  MIC: 0.05 µg/mL
[19]; listed as crystalline D form
  affinity to atmospheric humidity / hygroscopicity: low affinity to atmospheric humidity

## CO/N=C(\C(=O)NC1C(=O)N2C(C(=O)O)=C(COC(C)=O)CSC12)c1csc(N)n1 (stereo not drawn) [sodium salt not containing methanol, sodium 3-acetoxymethyl-7-[2-(2-amino-4-thiazolyl)-2-methoxyimino-acetamido]-ceph-3-eme-4-carboxylate]
[19]
  affinity to atmospheric humidity / hygroscopicity: hygroscopic
